The record followed here is ChEMBL document CHEMBL1201862, “PubChem BioAssay data set” (2004).

Experiment in all cases: growth of human tumour cells (NCI), 48 h
The test system of experiment [1] is DMS-114.
Experiment [2] concerns DMS-273.
The test system of experiment [3] is HOP-18.
Experiment [4] deals with KM-20L2.
The subject of experiment [5] is LXFL 529.
Experiment [6] concerns M19-MEL.
Experiment [7] deals with RXF 631.
The test system of experiment [8] is SNB-78.
Experiment [9] deals with XF498.

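Five compound concentrations were applied to cells in 96-well plates for 48 hours; endpoints were derived by simple linear interpolation of the resulting dose-response curve. GI50 is the concentration that inhibits growth by half.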 Calls of active or inactive are those of the source. Rule as the data show it: active = GI50 up to about 1.1 µM and inactive = higher.

Consider `Nc1ccc(Nc2nc(F)nc(-c3c4ccccc4c4n3CCS4)n2)cc1`, for which the GI50 in experiment [1] is 17.1 µM (inactive); in experiment [2], 10.4 µM (inactive); in experiment [3], 13.8 µM (inactive); in [4], 18.1 µM (inactive); in [5] it was 14.9 µM (inactive); in experiment [6], 16.5 µM (inactive). The GI50 was 15 µM (inactive) in experiment [7], 36.1 µM (inactive) in experiment [8] and 4.91 µM (inactive) in [9].

With `CC(=O)OC(C)(C)/C=C/C(=O)[C@](C)(O)[C@H]1[C@H](O)C[C@@]2(C)[C@@H]3CC=C4[C@@H](C=C(O)C(=O)C4(C)C)[C@]3(C)C(=O)C[C@]12C` [CUCURBITACIN E], the GI50 in experiment [1] is 0.0715 µM (active); in experiment [2], 0.0241 µM (active); in experiment [3], 0.06 µM (active); in experiment [4], 0.0197 µM (active); in experiment [5] it was 0.0339 µM (active); in [6], 0.0807 µM (active). Besides, the GI50 in experiment [7] was 0.0406 µM (active); in [8], 0.0914 µM (active); in experiment [9], 0.0356 µM (active).

On to `O=P(O)(NCCCl)NCCCl` [PALIFOSFAMIDE], for which the GI50 in [1] is 7.33 µM (inactive); in [2] it was 40 µM (inactive); in experiment [3], > 10 µM (inactive); in experiment [4], > 10 µM (inactive); in experiment [5] it was > 10 µM (inactive); in [6], > 10 µM (inactive). The GI50 was > 100 µM (inactive) in experiment [7], > 10 µM (inactive) in experiment [8] and > 10 µM (inactive) in [9].
